Test results: patent US20240299557A1, “COMPOUND FOR DEGRADING DEOXYRIBONUCLEIC ACID (DNA) POLYMERASE, AND USE THEREOF” (TAIBIDI PHARMACEUTICAL TECHNOLOGY (SHIJIAZHUANG) CO., LTD., priority 2021, published 2024)
Where a SMILES comes first, the peptide text is derived from it. The star is where a group is joined. Cbz = O=C(OCc1ccccc1)*

Legend:
[1] = biological target: T1, HBV P protein (Hepatitis B virus genotype D subtype ayw, UniProt P03156); assay: Degradation of flag-tagged HBV P protein in transfected Huh7 cells (Western Blot); format: cell-based
T1 construct: flag; expressed in transfected cells; host or cells: Huh7
Description: In vitro cell model: Huh7.
Proteasome inhibitor: MG132
The Huh7 cells cultured in the medium containing 10 μM TPD00203 drug were used to transfect the flag-tagged P protein overexpression plasmid, and the medium containing 10 μM TPD00203 drug was changed 6 hours after transfection, and MG132 (final concentration 10 μM) was added 24 hours after transfection to inhibit the degradation of P protein, and cells were harvested after MG132 treatment for 12 hours. MG132 is a reversible proteasome inhibitor. After MG132 was removed, the cells were cultured in a medium containing 10 μM TPD00203 for 12 hours, and the cells were harvested. The expression of P protein was detected by Western Blot experiment. DMSO was used as a control.

[2] = system: HBV; assay: Inhibition of HBV virus replication in HepG2.2.15 cells (HBV DNA level in supernatant); format: cell-based, hepatitis B virus; conditions: after 7 days of administration, P≤0.001 vs blank group
Description: In vitro cell model 1: HepG2 cells transfected with hepatitis B virus (HBV), namely HepG2 2.2.15 cells.
(§1) Positive drug control: entecavir (ETV).
(§2) Experimental procedure: HepG2.2.15 cells and stable toxigenic HepAD38 cells were divided into six experimental groups. The number of cells in each well was 7×10^4, and the amount of medium in each well was 500 μl. The first group was a blank control, the second group was a positive control, and 3.75 nM ETV was added; the third to sixth groups were added with 3.75 nM, 100 nM, 5 μM and 100 μM compound (I, TPD00203). The supernatant was collected on the 3rd day after administration and the HBV DNA level in the supernatant was detected. On the seventh day, the supernatant was collected again and the cells were pelleted, and the level of HBV DNA in the supernatant was detected.

[3] = system: HBV; assay: Inhibition of HBV virus replication in HepAD38 cells (HBV DNA level in supernatant); format: cell-based, hepatitis B virus; conditions: for inhibition of virus replication: all tested dose levels 10 nM, P≤0.001; for inhibitory effect on virus replication: after 7 days, TPD00203 each dose group (3.75 nM, 100 nM, 5 μM, 100 μM), ETV 3.75 nM; for inhibition at 0.01 µM / inhibition at 0.1 µM / inhibition at 1 µM / inhibition at 10 µM: Hepatitis B virus, HepAD38 cell line, read-out: Antiviral activity of the compound at different concentrations; for inhibition at 1 µM: 1000 nM; for inhibition at 10 µM: 10000 nM
Description: In vitro cell model 2: Stable toxigenic HepAD38 cells.
as §1, §2
After the preliminary evaluation of the virus-inhibiting effect of TPD00203, the inhibitory effects of the same dose of TPD00203 and ETV were determined in HepAD38 cell line. ETV and TPD00203 were 4 dose groups of 10 nM, 100 nM, 1 μM, and 10 μM.
The inhibitory activity of compounds (I-X) on the virus in HepAD38 cell line was determined by the same method as in Example 6, and the results were shown in the following table.

[4] = biological target: T2, HBV P protein (DNA polymerase) (Hepatitis B virus genotype D subtype ayw, UniProt P03156); assay: Degradation of HBV P protein (DNA polymerase) in Huh7-HBP cell line (Nano-Glo HiBiT/LgBiT luminescence); format: cell-based; conditions: read-out: Degradation activity of DNA polymerase at different concentrations of compounds; for inhibition at 0.1 µM: 100 nM; for inhibition at 0.3 µM: 300 nM; for inhibition at 1 µM: 1000 nM; for inhibition at 3 µM: 3000 nM; for inhibition at 10 µM: 10000 nM
T2 construct: expressed in transfected cells; host or cells: Huh7-LgBiT cells transduced with pLVX-HBP-Puro lentivirus (Huh7-HBP)
Description: The transfected huh-7-HBP cell line was digested and suspended, 100 μl of cell suspension was added to each well of a 96-well plate at a concentration of 2×10^5/ml, and incubated overnight. 10 μl of drug was added to each well according to the pre-set dose, and each dose of each drug should be at least two replicate wells. After shaking gently, the cell suspension was put back into the incubator, and incubated for 1-24 h according to the specific situation. Nano-Glo@ LCS Dilution Buffer and Nano-Glo@ Live Cell Substrate two reagents in the Nano-Glo@Live Cell Assay System kit were mixed at a ratio of 20:1, and added to the cell plate to be tested at a ratio of 25 ul per 100 ul system. After shaking for 30 seconds, full wavelength luminosity was measured using BMG Labtech FLUOstar Omega ELIASA. The higher the luminescence value, the higher the HBP content of the target protein.
According to method 1, the degradation effect of target compounds I-X on HBV P protein at 5 different concentrations was determined.

[5] = HepAD38 cells, 7 days, 100 nM, 1 μM, 10 μM

T2 sequence (P03156 whole entry): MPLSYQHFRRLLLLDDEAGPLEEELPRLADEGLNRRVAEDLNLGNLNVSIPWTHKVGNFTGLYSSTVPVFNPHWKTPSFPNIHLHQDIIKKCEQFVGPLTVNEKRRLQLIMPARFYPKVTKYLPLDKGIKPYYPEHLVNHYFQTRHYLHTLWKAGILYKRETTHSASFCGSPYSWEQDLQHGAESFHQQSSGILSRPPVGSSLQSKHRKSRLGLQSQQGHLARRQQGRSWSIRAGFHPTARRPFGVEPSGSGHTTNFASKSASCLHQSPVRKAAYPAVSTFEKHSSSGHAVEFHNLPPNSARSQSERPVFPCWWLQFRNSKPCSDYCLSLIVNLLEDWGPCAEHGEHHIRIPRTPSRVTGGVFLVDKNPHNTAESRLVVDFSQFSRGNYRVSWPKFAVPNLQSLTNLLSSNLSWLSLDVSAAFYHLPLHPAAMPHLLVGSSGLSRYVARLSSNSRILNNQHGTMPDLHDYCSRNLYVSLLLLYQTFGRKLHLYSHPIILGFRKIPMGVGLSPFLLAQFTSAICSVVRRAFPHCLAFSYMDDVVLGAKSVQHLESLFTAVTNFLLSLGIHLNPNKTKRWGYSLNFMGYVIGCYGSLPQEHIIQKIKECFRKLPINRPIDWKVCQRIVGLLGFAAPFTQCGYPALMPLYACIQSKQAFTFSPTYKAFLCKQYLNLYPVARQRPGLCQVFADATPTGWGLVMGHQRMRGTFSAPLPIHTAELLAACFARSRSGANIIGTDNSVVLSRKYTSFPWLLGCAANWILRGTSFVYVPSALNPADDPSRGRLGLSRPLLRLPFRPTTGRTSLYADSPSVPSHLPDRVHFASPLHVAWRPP
T1 sequence (P03156 whole entry): as above

Row | SMILES | P protein degradation (Western Blot) ([1]; Huh7 cells transfected with flag-Polymerase plasmid, 10 μM TPD00203, 36 hours after transfection) | inhibitory effect on virus replication ([2]; 3.75 nM) | inhibitory effect on virus replication ([2]; 5 μM) | inhibitory effect on virus replication ([2]; 100 μM) | virus-inhibiting effect compared with ETV at the same dose ([3]; HepAD38 cells, 7 days, 10 nM, 100 nM, 1 μM, 10 μM) | inhibition of virus replication [3, 5] | inhibitory effect on virus replication ([3]; HepAD38 cells) | inhibition at 0.01 µM ([3]; 10 nM) [%] | inhibition at 0.1 µM ([3]; 100 nM) [%] | inhibition at 1 µM [3] [%] | inhibition at 10 µM [3] [%] | inhibition at 0.1 µM [4] [%] | inhibition at 0.3 µM [4] [%] | inhibition at 1 µM [4] [%] | inhibition at 3 µM [4] [%] | inhibition at 10 µM [4] [%] | effect of proteasome inhibitor on drug-induced P protein degradation ([1]; Huh7 cells, MG132 final concentration 10 μM added 24 hours after transfection, with 10 μM TPD00203)
1 | C=C1[C@H](CO)[C@H](O)C[C@@H]1n1cnc2c(OCCCCCCCCCC(=O)N[C@H](C(=O)N3C[C@H](O)C[C@H]3C(=O)NCc3ccc(-c4scnc4C)cc3)C(C)(C)C)nc(N)nc21 [Compound I] | promote P protein degradation | significant inhibition of viral replication | significant inhibition of viral replication | significant inhibition of viral replication | better virus-inhibiting effect than ETV | significantly inhibit virus replication | significant inhibitory effect on virus replication | > 60 | > 60 | > 60 | > 60 | < 30 | 30 to 70 | 30 to 70 | > 70 | > 70 | –
2 | C=C1[C@H](CO)[C@@H](O)C[C@@H]1n1cnc2c(=O)[nH]c(N)nc21 [entecavir, reference compound] | – | significant inhibitory effect on virus replication | – | – | – | significantly inhibit virus replication | significant inhibitory effect on virus replication | – | – | – | – | – | – | – | – | – | –
3 | C=C1[C@H](CNC(=O)CN2CCC(CCCC(=O)N[C@H](C(=O)N3C[C@H](O)C[C@H]3C(=O)NCc3ccc(-c4scnc4C)cc3)C(C)(C)C)CC2)[C@H](O)C[C@@H]1n1cnc2c(=O)[nH]c(N)nc21 [VIII] | – | – | – | – | – | – | – | 30 to 60 | 30 to 60 | 30 to 60 | > 60 | < 30 | < 30 | 30 to 70 | 30 to 70 | > 70 | –
4 | C=C1[C@H](CNC(=O)CN2CCC(OCCC(=O)N[C@H](C(=O)N3C[C@H](O)C[C@H]3C(=O)NCc3ccc(-c4scnc4C)cc3)C(C)(C)C)CC2)[C@H](O)C[C@@H]1n1cnc2c(=O)[nH]c(N)nc21 [IX] | – | – | – | – | – | – | – | 30 to 60 | 30 to 60 | > 60 | > 60 | – | – | – | – | – | –
5 | C=C1[C@H](CNC(=O)CCCCCCCCC(=O)N[C@H](C(=O)N2C[C@H](O)C[C@H]2C(=O)NCc2ccc(-c3scnc3C)cc2)C(C)(C)C)[C@H](O)C[C@@H]1n1cnc2c(=O)[nH]c(N)nc21 [Compound VI, N1-(((1R,3S)-3-(2-amino-6-oxo-1,6-dihydro-9H-purin-9-yl)-5-hydroxy-2-methylenecyclopentyl)methyl)-N10-((S)-1-((2S,4R)-4-hydroxy-2-((4-(4-methylthiazol-5-yl)benzyl)carbamoyl)pyrrolidin-1-yl)-3,3-dimethyl-1-oxobutan-2-yl) decanoic acid diamide] | – | – | – | – | – | – | – | 10 to 30 | 30 to 60 | > 60 | > 60 | < 30 | 30 to 70 | 30 to 70 | > 70 | > 70 | –
6 | C=C1[C@H](CO)[C@H](O)C[C@@H]1n1cnc2c(OCCOCCOCCCC(=O)N[C@H](C(=O)N3C[C@H](O)C[C@H]3C(=O)NCc3ccc(-c4scnc4C)cc3)C(C)(C)C)nc(N)nc21 [Compound V] | – | – | – | – | – | – | – | 10 to 30 | 30 to 60 | 30 to 60 | 30 to 60 | < 30 | 30 to 70 | 30 to 70 | 30 to 70 | 30 to 70 | –
7 | C=C1[C@H](CNC(=O)CN2CCN(CCCC(=O)N[C@H](C(=O)N3C[C@H](O)C[C@H]3C(=O)NCc3ccc(-c4scnc4C)cc3)C(C)(C)C)CC2)[C@H](O)C[C@@H]1n1cnc2c(=O)[nH]c(N)nc21 [Compound VII] | – | – | – | – | – | – | – | 10 to 30 | 10 to 30 | 30 to 60 | 30 to 60 | < 30 | < 30 | < 30 | 30 to 70 | 30 to 70 | –
8 | CC(C)C[C@@H](C=O)NC(=O)[C@H](CC(C)C)NC(=O)[C@H](CC(C)C)NC(=O)OCc1ccccc1 [MG132, reference compound] (Cbz-Leu-Leu-Leu-aldehyde) | – | – | – | – | – | – | – | – | – | – | – | – | – | – | – | – | inhibited drug degradation
9 | C=C1[C@H](CO)[C@H](O)C[C@@H]1n1cnc2c(OCCN3CCC(CCCC(=O)N[C@H](C(=O)N4C[C@H](O)C[C@H]4C(=O)NCc4ccc(-c5scnc5C)cc4)C(C)(C)C)CC3)nc(N)nc21 [III] | – | – | – | – | – | – | – | > 60 | > 60 | > 60 | > 60 | < 30 | < 30 | 30 to 70 | 30 to 70 | > 70 | –
10 | C=C1[C@H](CO)[C@H](O)C[C@@H]1n1cnc2c(OCCN3CCN(CCCC(=O)N[C@H](C(=O)N4C[C@H](O)C[C@H]4C(=O)NCc4ccc(-c5scnc5C)cc4)C(C)(C)C)CC3)nc(N)nc21 [II] | – | – | – | – | – | – | – | 10 to 30 | 10 to 30 | 30 to 60 | > 60 | < 30 | < 30 | < 30 | 30 to 70 | 30 to 70 | –
